Measurements taken from patent US20140308317A1, “Polymeric Compounds And Methods Of Making And Using The Same” (CELLCEUTIX CORPORATION, priority 2012, published 2014).
Converted amounts (≈) assume the structure as drawn. Read-outs that look alike come from different tables or passages of the source.

What was measured:
E. Coli ATCC 25922 = assay: Minimum Inhibitory Concentration (MIC), modified microbroth dilution; assay type: cell-based; conditions: E. coli (25922); overnight incubation (18 hours)
[1] = system: Staphylococcus aureus ATCC 27660; assay: as above; assay type: cell-based; conditions: S. aureus (27660); overnight incubation (18 hours)
[2] = system: Enterococcus faecalis ATCC 29212; assay: as above; assay type: cell-based; conditions: E. faecalis (29212); overnight incubation (18 hours)
[3] = system: Pseudomonas aeruginosa ATCC 10145; assay: as above; assay type: cell-based; conditions: P. aeruginosa (10145); overnight incubation (18 hours)
[4] = system: Klebsiella pneumoniae ATCC 13883; assay: as above; assay type: cell-based; conditions: K. pneumoniae (13883); overnight incubation (18 hours)
NIH/3T3 cells, CRL-1658 = assay: Cytotoxicity colorimetric (tetrazolium) assay; assay type: cell-based, mouse
Procedure, shortened: (§1)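 HepG2 (MEM, 10% FBS) and NIH/3T3 (DMEM, 10% BCS) monolayers seeded at 2×10^4 cells/well 24 h before use, then exposed to compounds for one hour in serum-free medium. After return to serum-containing medium, viable cells read by tetrazolium bioreduction to formazan. EC50 in μg/mL from four-parameter logistic fit.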

HepG2, HB-8065 = assay: Cytotoxicity colorimetric (tetrazolium) assay; assay type: cell-based, human
Procedure, shortened: as §1

[5] = NIH/3T3 cells, one hour with compound in serum-free media
[6] = HepG2 cells, one hour with compound in serum-free media

SMILES	MIC50 E. coli (E. Coli ATCC 25922) [µg/mL]	MIC50 S. aureus [1] [µg/mL]	MIC50 E. faecalis [2] [µg/mL]	MIC50 P. Aeruginosa [3] [µg/mL]	MIC50 K. Pnuemnoiae [4] [µg/mL]	EC50 NIH 3T3 (cytotoxicity) (NIH/3T3 cells, CRL-1658; [5]) [µg/mL]	EC50 HepG2 (cytotoxicity) (HepG2, HB-8065; [6]) [µg/mL]	EC50 NIH 3T3 (cytotoxicity) (NIH/3T3 cells, CRL-1658) [µg/mL]	EC50 HepG2 (cytotoxicity) (HepG2, HB-8065) [µg/mL]
NCCNC(=O)c1cc(C(=O)NCCN)cc(-c2ccc3oc4ccc(-c5cc(C(=O)NCCN)cc(C(=O)NCCN)c5)cc4c3c2)c1 [Compound 168]	>50	3.13 (≈ 4.71 µM)	>50	>50	>50	32.4 (≈ 48.7 µM)	72.6 (≈ 109 µM)	–	–
NCCCOc1cc(OCCCN)cc(-c2ccc(F)c(-c3cc(-c4cc(OCCCN)cc(OCCCN)c4)ccc3F)c2)c1 [Compound 145]	1.56 to 3.13	1.56 (≈ 2.46 µM)	0.78 to 1.56	12.5 (≈ 19.7 µM)	1.56 to 3.13	146.3 (≈ 230 µM)	302 (≈ 476 µM)	–	–
NCCN(CCN)Cc1ccc(F)c(-c2ccc3sc4ccc(-c5cc(CN(CCN)CCN)ccc5F)cc4c3c2)c1 [Compound 180]	1.56 (≈ 2.59 µM)	0.098 (≈ 0.163 µM)	3.13 (≈ 5.19 µM)	3.13 (≈ 5.19 µM)	1.56 (≈ 2.59 µM)	43.1 (≈ 71.5 µM)	104 (≈ 173 µM)	–	–
Cc1cc(-c2cc(OCCCN)cc(OCCCN)c2)cc(-c2cc(C)cc(-c3cc(OCCCN)cc(OCCCN)c3)c2)c1 [Compound 147]	1.56 (≈ 2.49 µM)	0.39 (≈ 0.622 µM)	0.78 (≈ 1.24 µM)	6.25 (≈ 9.97 µM)	1.56 (≈ 2.49 µM)	50.94 (≈ 81.3 µM)	164 (≈ 262 µM)	–	–
NCCCOc1cc(-c2ccc3sc4ccc(-c5cc(OCCCN)c(OCCCN)c(OCCCN)c5)cc4c3c2)cc(OCCCN)c1OCCCN [Compound 184]	6.25 (≈ 8.06 µM)	1.56 (≈ 2.01 µM)	6.25 (≈ 8.06 µM)	6.25 (≈ 8.06 µM)	12.5 (≈ 16.1 µM)	57 (≈ 73.5 µM)	100 (≈ 129 µM)	–	–
c1cc(CN2CCNCC2)cc(-c2ccc3sc4ccc(-c5cccc(CN6CCNCC6)c5)cc4c3c2)c1 [Compound 175]	6.25 (≈ 11.7 µM)	0.39 (≈ 0.732 µM)	12.5 (≈ 23.5 µM)	25 (≈ 46.9 µM)	12.5 (≈ 23.5 µM)	19.9 (≈ 37.4 µM)	19.4 (≈ 36.4 µM)	–	–
NCCc1cccc(-c2ccc3c(c2)C(=O)c2cc(-c4cccc(CCN)c4)cc(-c4cccc(CCN)c4)c2CC3)c1 [Compound 154]	1.56 (≈ 2.76 µM)	0.78 (≈ 1.38 µM)	6.25 (≈ 11 µM)	6.25 (≈ 11 µM)	6.25 (≈ 11 µM)	53.4 (≈ 94.4 µM)	85.4 (≈ 151 µM)	–	–
CCn1c2ccc(-c3cc(C(=O)NCCN)cc(C(=O)NCCN)c3)cc2c2cc(-c3cc(C(=O)NCCN)cc(C(=O)NCCN)c3)ccc21 [Compound 169]	25 (≈ 36.1 µM)	3.13 (≈ 4.52 µM)	>50	>50	>50	450 (≈ 650 µM)	312 (≈ 451 µM)	–	–
Cc1cc(-c2cc(OCCCN)cc(OCCCN)c2)cc(-c2cc(-c3cc(OCCCN)cc(OCCCN)c3)cc(C)c2F)c1F [Compound 149]	3.13 (≈ 4.72 µM)	0.78 (≈ 1.18 µM)	1.56 (≈ 2.35 µM)	6.25 (≈ 9.43 µM)	3.13 (≈ 4.72 µM)	59.19 (≈ 89.3 µM)	98.5 (≈ 149 µM)	–	–
NCCCOc1cc(OCCCN)cc(-c2cc(F)cc(-c3cc(F)cc(-c4cc(OCCCN)cc(OCCCN)c4)c3)c2)c1 [Compound 148]	1.56 (≈ 2.46 µM)	0.39 (≈ 0.614 µM)	0.78 (≈ 1.23 µM)	3.13 (≈ 4.93 µM)	1.56 (≈ 2.46 µM)	53.77 (≈ 84.7 µM)	244 (≈ 384 µM)	–	–
NCCCN(CCCN)Cc1cccc(-c2ccc3sc4ccc(-c5cccc(CN(CCCN)CCCN)c5)cc4c3c2)c1 [Compound 181]	3.13 (≈ 5.02 µM)	0.195 (≈ 0.313 µM)	6.25 (≈ 10 µM)	6.25 (≈ 10 µM)	6.25 (≈ 10 µM)	83.1 (≈ 133 µM)	212 (≈ 340 µM)	–	–
NCCc1cccc(-c2cc3c(c(-c4cccc(CCN)c4)c2)CCc2ccccc2C3=O)c1 [Compound 152]	3.13 (≈ 7.01 µM)	1.56 (≈ 3.49 µM)	3.13 (≈ 7.01 µM)	25 (≈ 56 µM)	6.25 (≈ 14 µM)	20.9 (≈ 46.8 µM)	27.5 (≈ 61.6 µM)	–	–
NCCCOc1cc(OCCCN)cc(-c2ccc3c(c2)c2ccccc2n3CCCN)c1 [Compound 161]	>50	25 (≈ 56 µM)	3.13 (≈ 7.01 µM)	50 (≈ 112 µM)	>50	–	–	>1000	790 (≈ 1770 µM)
NCCc1cccc(-c2ccc3c(c2)C(=O)c2cc(-c4cccc(CCN)c4)ccc2CC3)c1 [Compound 153]	6.25 (≈ 14 µM)	1.56 (≈ 3.49 µM)	3.13 (≈ 7.01 µM)	25 (≈ 56 µM)	6.25 (≈ 14 µM)	53.3 (≈ 119 µM)	80.6 (≈ 180 µM)	–	–
N=C(N)NCCCc1cccc(-c2cc(-c3cccc(CCCNC(=N)N)c3)cc(C(F)(F)F)c2)c1 [Compound 114]	3.13 (≈ 6.3 µM)	0.78 (≈ 1.57 µM)	1.56 (≈ 3.14 µM)	12.5 (≈ 25.2 µM)	3.13 (≈ 6.3 µM)	83.5 (≈ 168 µM)	60.6 (≈ 122 µM)	–	–
Nc1cccc(-c2ccc3[nH]c4ccc(-c5cccc(N)c5)cc4c3c2)c1 [Compound 177]	1.56 (≈ 4.46 µM)	1.56 (≈ 4.46 µM)	>50	12.5 (≈ 35.8 µM)	>50	487 (≈ 1390 µM)	>1000	–	–
NCCCOc1cc(OCCCN)cc(-c2cc(-c3cc(-c4cc(OCCCN)cc(OCCCN)c4)cc(C(F)(F)F)c3)cc(C(F)(F)F)c2)c1 [Compound 146]	1.56 to 3.13	1.56 (≈ 2.12 µM)	0.78 to 1.56	6.25 (≈ 8.51 µM)	1.56 to 3.13	35.82 (≈ 48.7 µM)	58.6 (≈ 79.8 µM)	–	–
